Converted amounts (≈) assume the structure as drawn. Like-named read-outs stand apart in the source and are kept apart here.
What was measured:
[1] = rcm bond
[2] = system: small cell lung cancer cell line with defective Rb function; assay: Inhibition of small cell lung cancer cell line with defective Rb function; format: cell-based, human
Protocol: (§1) Growth assays were performed by seeding 10000 cells (MCF7, BT474 or N417) per well in 6-welldishes and incubating for 24 h before drug treatment. Drugs or vehicle were administered as outlined for each experiment, and cells were incubated for the time periods depicted and then the number quantified by a Coulter counter.

MCF7 = assay: Alamar blue proliferation assay, growth inhibition of MCF7 breast cancer cells; format: cell-based, human; conditions: for IC50: Homo sapiens
Excerpt: Biological Evaluation of Cycloproparadicicol Analogues. As discussed earlier, it appears that the inhibition of Hsp90 induces the proteasomal degradation of various oncogenic proteins, thereby leading to inhibition of tumor cell growth. We hoped to evaluate our synthetic analogues for their growth inhibition activity against MCF breast cancer cells. […] Further modifications of 27α, however, decreased its potency.
Cell Culture. The human cancer line MCF7 was obtained from American Type Culture Collection (Manassas, Va., USA) and maintained in 1:1 mixture of DME:F12 supplemented with 10% heat-inactivated fetal bovine serum, 2 mM glutamine, 50 units/ml of penicillin and streptomycin, and incubated in a humidified 5% CO2/air atmosphere at 37° C. For the Alamar blue proliferation assay, 2×10^3 cells were plated in 96-well plates. Twenty four hours later, cells were treated with the compound for 72 or 120 hours. On day 3 or 5, Alamar Blue viability assay (AccuMe Westlake, Ohio) was performed as described elsewhere (White, M. J.; DiCaprio, M. J Greenberg, D. A. J. Neurosci. Methods 1996, 70, 195-200; incorporated herein by reference). IC50s were calculated as the doses of the compound required to inhibit cell growth by 50% of control values.

HER2 [3] = assay: Her2 degradation in drug-treated MCF-7 cells by immunoblotting; format: cell-based, human; conditions: for concentration at which Her2 is degraded: P85 control
Protocol: To confirm that the cytotoxicity was indeed due to the inhibition of Hsp90, we set out to investigate the degradation of Her2, one of the most sensitive client proteins of this chaperone. The expression levels of Her2 of drug-treated MCF-7 cells were analyzed using immunoblotting (FIG. 31). P85, used as a control, is not a client protein of Hsp90. As expected, the growth inhibition activities of the synthetic active analogues are reflected in their capacity to degrade Her2. […] Nonchlorinated difluoro compound 38 degraded Her2 at 1 μM, and its chlorinated counterpart 31, at 10 μM.
Immunoblotting. For immunoblotting, cells in culture were washed and harvested in PBS, and then lysed in NP-40 buffer (50 mMTris, pH 7.5, 1% Nonidet P-40, 150 mM NaCl, 2.5 mM Na3VO4, 10 mM phenylmethylsulfonyl fluoride, and 10 μM each leupeptin, aprotinin, and soybean trypsin inhibitor). Cell lysates were cleared by centrifugation at 14,000×g for 10 minutes, and supernatants were collected as the experimental samples. Protein concentrations were determined using BCA reagent (Pierce Chemical Co., Rockford, Ill.). Lysates were added to sample buffer [0.3125 M Tris-HCl (pH 6.8), 10% SDS, 50% glycerol, and 77.5 mg/ml DTT], and equal amounts of protein were resolved by 7% SDS-PAGE and transferred to nitrocellulose membranes. Blots were blocked in 5% nonfat milk in Tris-buffered saline [0.1% Tween 20, 10 mM Tris (pH 7.4), and 150 mM NaCl] and subsequently probed with antibody (HER2 rabbit polyclonal IgG, Santa Cruz Biotechnology, Santa Cruz, Calif.; and PI3 kinase P85, Upstate Cell Signaling Solutions, Lake Placid, N.Y.). After incubation with horseradish peroxidase-conjugated secondary antibodies, proteins were visualized by chemiluminescence using the ECL detection reagents (Amersham Corp., Piscataway, N.J.). To prepare lysate from xenograft tumors, tumor tissue was homogenized in 2% SDS lysis buffer for 30 s then processed as above.

HER2 [4] = assay: Reduction of HER2 in MCF7 and BT474 cells (protein assay, gels); format: cell-based, human; conditions: tested at 0.5 μM through 5 μM
Protocol: As depicted in FIGS. 17 and 18, four analogues have been tested for their ability to reduce HER2 in MCF7 and BT474 cells. […] Furthermore, while the vinyl epoxide, a reactive moiety, may be responsible for undesired cytotoxicity, the cyclopropane is far more stabile to non-productive cellular nucleophiles.
The human cancer cell lines MCF7, BT474 and N417 were obtained from the American Type Culture Collection (Manassas, Va., USA) and maintained in a 1:1 mixture of DME:F12 supplemented with 2 mM glutamine, 50 U/mL penicillin, 50 U/mL streptomycin and 5% heat inactivated fetal bovie serum (Gemini Bioproducts) and incubated at 37° C. in 5% CO2.
Cells were grown to 60-70% confluence and exposed to drugs or DMSO vehicle for the indicated time periods. Lysates were prepared using 50 mM Tris pH 7.4, 2% SDS and 10% glycerol lysis buffer. Protein concentration was determined using the BCA kit (Pierce Chemical Co.) according to the manufacturer's instructions. Clarified protein lysates (20-50 μg) were electrophoretically resolved on denaturing SDS-PAGE, transferred to nitrocellulose and probed with the following primary antibodies: anti-Her2 (C-18).

[5] = system: breast cancer cell with wild type Rb; assay: Inhibition of breast cancer cell with wild type Rb; format: cell-based, human
Protocol: as §1

Hsp90 = conditions: cited from earlier work
P. falciparum = conditions: cited from earlier work
KB cells = conditions: cited from earlier work
MCF7 cells = assay: Growth of MCF7 cells (HER2 overexpressed, Rb positive) treated with radicicol and analogues; format: cell-based, human
[6] = cited from earlier work
[7] = MCF7, MCF breast cancer cells, 72 h treatment, read-out: IC50 value
[8] = MCF7 cells, 72 h treatment, read-out: IC50 (pM) Values of Cycloproparadicicol Analogues and Aigialomycin D
[9] = MCF breast cancer cells, 72 h treatment

CC(C)(C)[Si](C)(C)OC1/C=C/C=CCCCCOC(=O)[C]23[Co]4[Co]2[C]43C1.[C-]#[O+].[C-]#[O+].[C-]#[O+].[C-]#[O+].[C-]#[O+].[C-]#[O+] (centres unmarked)
ring closure, yield of all isomers ([1]; from C=CCCCCOC(=O)[C]12[Co]3[Co]1[C]32CC(/C=C/C=C/C)O[Si](C)(C)C(C)(C)C.[C-]#[O+].[C-]#[O+].[C-]#[O+].[C-]#[O+].[C-]#[O+].[C-]#[O+]): 71%

C[C@@H]1C[C@H]2C[C@@H]2C=C/C=C/C(O[Si](C)(C)C(C)(C)C)CC#CC(=O)N1 (some centres unmarked)
ring closure, yield of all isomers ([1]; from C=C[C@H]1C[C@@H]1C[C@@H](C)NC(=O)C#CCC(/C=C/C=C/C)O[Si](C)(C)C(C)(C)C.[C-]#[O+].[C-]#[O+].[C-]#[O+].[C-]#[O+].[C-]#[O+].[C-]#[O+].[Co].[Co], 2 steps): 60%

C[C@@H]1C[C@H]2C[C@@H]2C=C/C=C/C(O[Si](C)(C)C(C)(C)C)CC#CC(=O)O1 (some centres unmarked)
ring closure, yield of all isomers ([1]; from C=C[C@H]1C[C@@H]1C[C@@H](C)OC(=O)[C]12[Co]3[Co]1[C]32CC(/C=C/C=C/C)O[Si](C)(C)C(C)(C)C.[C-]#[O+].[C-]#[O+].[C-]#[O+].[C-]#[O+].[C-]#[O+].[C-]#[O+], 2 steps): 51%

C[C@@H]1C[C@H]2C[C@@H]2C=C/C=C/C(O[Si](C)(C)C(C)(C)C)C[C]23[Co]4[Co]2[C]43C(=O)O1.[C-]#[O+].[C-]#[O+].[C-]#[O+].[C-]#[O+].[C-]#[O+].[C-]#[O+] (some centres unmarked)
ring closure, yield of all isomers ([1]; from C=C[C@H]1C[C@@H]1C[C@@H](C)OC(=O)[C]12[Co]3[Co]1[C]32CC(/C=C/C=C/C)O[Si](C)(C)C(C)(C)C.[C-]#[O+].[C-]#[O+].[C-]#[O+].[C-]#[O+].[C-]#[O+].[C-]#[O+]): 57%

C[C@H]1CC=C[C@H]2OC(C)(C)O[C@H]2CCC(O[Si](C)(C)C(C)(C)C)C[C]23[Co]4[Co]2[C]43C(=O)O1.[C-]#[O+].[C-]#[O+].[C-]#[O+].[C-]#[O+].[C-]#[O+].[C-]#[O+] (some centres unmarked)
ring closure, yield of all isomers ([1]; from C=CC[C@H](C)OC(=O)[C]12[Co]3[Co]1[C]32CC(CC[C@@H]1OC(C)(C)O[C@@H]1C=C)O[Si](C)(C)C(C)(C)C.[C-]#[O+].[C-]#[O+].[C-]#[O+].[C-]#[O+].[C-]#[O+].[C-]#[O+]): 80%

17-alkylaminogeldanamycin [17-AGG, reference compound]
potency in cells with wild type Rb versus cells with defective Rb function [2]: much more potent against cells with wild type Rb than in cells with defective Rb function

C[C@@H]1C[C@H]2C[C@@H]2/C=C\C=C\[C@H](O)Cc2cc(O)cc(O)c2C(=O)O1 [27α]
IC50 (MCF7; [7]): 150000 pM
IC50 (MCF7; [8]): 150000 pM
concentration at which Her2 is degraded (HER2 [3]): 0.3 µM

C[C@@H]1C[C@H]2C[C@@H]2/C=C\C=C\[C@@H](O)Cc2cc(O)cc(O)c2C(=O)O1 [27β]
IC50 (MCF7; [8]): > 500000 pM
growth inhibition activity (MCF7; [9]): inactive

C[C@@H]1C[C@H]2C[C@@H]2/C=C\C=C\[C@H](O)Cc2c(Cl)c(O)cc(O)c2C(=O)O1 [28α]
IC50 (MCF7; [7]): 390000 pM
IC50 (MCF7; [8]): 390000 pM

CO[C@H]1/C=C/C=C\[C@H]2C[C@@H]2C[C@@H](C)OC(=O)c2c(O)cc(O)cc2C1 [29α]
IC50 (MCF7; [8]): > 1e+07 pM
growth inhibition activity (MCF7; [9]): completely inactive

C[C@@H]1C[C@H]2C[C@@H]2\C=C/C=C/C(=N/O)Cc2c(Cl)c(O)cc(O)c2C(=O)O1 [(E)-30]
IC50 (MCF7; [8]): 282000 pM
capacity to degrade Her2 (HER2 [3]): less effective

C[C@@H]1C[C@H]2C[C@@H]2\C=C/C=C/C(=N\O)Cc2c(Cl)c(O)cc(O)c2C(=O)O1 [(Z)-30]
IC50 (MCF7; [8]): 98000 pM
potency relative to the corresponding (E)-isomer (MCF7; MCF breast cancer cells, 72 h): 3 times
concentration at which Her2 is degraded (HER2 [3]): 0.3 µM

C[C@@H]1C[C@H]2C[C@@H]2/C=C\C=C\C(=O)Cc2c(Cl)c(O)cc(O)c2C(=O)O1 [compound 2, Cycloproparadicicol]
effectiveness in reducing HER2 relative to radicicol (HER2 [4]): at least as effective, if not better than radicicol
inhibition of breast cancer cell with wild type Rb [5]: potent inhibitors
inhibition of small cell lung cancer cell line with defective Rb function [2]: potent inhibitors
potency relative to 17-AGG in small cell lung cancer cell line with defective Rb function [2]: much more potent than 17-AGG
IC50 (MCF7; [8]): 54000 pM
growth inhibition activity (MCF7; [9]): most potent of the new compounds
concentration at which Her2 is degraded (HER2 [3]): 0.3 µM
binds to Hsp90 at (Hsp90): ca. 160 nM

C[C@@H]1C[C@@H]2[C@@H](/C=C\C=C\C(=O)Cc3c(Cl)c(O)cc(O)c3C(=O)O1)C2(F)F [compound 31, Difluorocycloproparadicicol]
IC50 (MCF7; [8]): 1e+07 pM
concentration at which Her2 is degraded (HER2 [3]): 10 µM

C[C@@H]1C[C@@H]2[C@@H](/C=C\C=C\C(=O)Cc3cc(O)cc(O)c3C(=O)O1)C2(F)F [compound 38, Difluorocyclopropamonocilin]
IC50 (MCF7; [8]): 3e+06 pM
concentration at which Her2 is degraded (HER2 [3]): 1 µM

C[C@H]1C/C=C/[C@@H](O)[C@@H](O)CC/C=C/c2cc(O)cc(O)c2C(=O)O1 [compound 46, Aigialomycin D]
IC50 (MCF7; MCF7, 72 h, read-out: IC50 (pM) Values of Cycloproparadicicol Analogues and Aigialomycin D): > 1e+07 pM
growth inhibition activity (MCF7; [9]): significantly less active than the cycloproparadicicol derivatives
concentration at which Her2 is degraded (HER2 [3]): > 10 µM
IC50 against P. falciparum (antimalarial activity) (P. falciparum): 6.6 µg/mL (≈ 19.7 µM)
IC50 against KB cells (antitumor activity) (KB cells): 3.0 µg/mL (≈ 8.97 µM)

C[C@@H]1C[C@H]2O[C@@H]2/C=C\C=C\C(=O)Cc2c(Cl)c(O)cc(O)c2C(=O)O1 [radicicol, reference compound]
efficacy in side by side experiment with radicicol (MCF7 cells): demonstrated efficacy
inhibition of breast cancer cell with wild type Rb [5]: potent inhibitors
inhibition of small cell lung cancer cell line with defective Rb function [2]: potent inhibitors
activity in in vivo (animal) models [6]: ineffective
